Test results published in article PMC6260619, “Selective Cytotoxicity of Goniothalamin against Hepatoblastoma HepG2 Cells” (Molecules, 2011).
Several values for one entry are separate records, joined by “and”; a condition that tells them apart may be missing. Identical values can stand only once. Like-named read-outs stand apart in the source and are kept apart here.

Assays:
HepG2 cells [1] = experiment: MTT cytotoxicity assay, HepG2; format: cell-based, human; conditions: for IC50: read-out: IC50 from MTT
Protocol: (§1) HepG2 and Chang cells were plated at 1 × 10^4 cells/well by adding 200 μL of a 5 × 10^4 cells/mL suspension to each well of a 96-well tissue culture plate. The plate was incubated for a sufficient time to assure attachment and 40% to 60% confluency. […] The last row was left as an untreated control. The plates were incubated at 37 °C, 5% CO2, for 24, 48 and 72 hours, respectively. After incubation with compounds, the media was aspirated off and replaced with fresh media. Then, MTT solution (20 μL) for a total volume of 200 μL was added in every well and incubated for 4 to 6 hours at 37 °C with 5% CO2. After that, MTT-containing medium was removed gently and replaced with DMSO (200 μL per well) to mix the formazan crystals until dissolved. The plates were read on microtiter plate reader at 570 nm. For each compound tested, the IC50 (concentration of drug needed to inhibit cell growth by 50%) is generated from the dose-response curves for each cell line.

Chang cells [2] = experiment: MTT cytotoxicity assay, Chang; format: cell-based, human; conditions: for IC50: read-out: IC50 from MTT
Protocol: as §1

Chang cells [3] = experiment: LDH leakage assay, Chang; format: cell-based, human; conditions: for IC50: read-out: IC50 from LDH
Protocol: Measurement of LDH activity is another indicator of cell viability through evaluation of the cell membrane permeability. The enzyme activity is measured externally, as it leaks from dead cells which lose their membrane integrity. LDH leakage detection is based on the loss of NADH due to its oxidation to NAD^+, resulting in the conversion of pyruvate to lactate. Untreated cells should retain LDH in their cells and have minimal loss over the time of the assay. Triton X-100-treated cells that give the maximum loss of LDH were used as the positive control in this assay.
To determine the effect of goniothalamin on membrane permeability in HepG2 and Chang cell lines, a lactate dehydrogenase (LDH) release assay was used. The cells were seeded in 96-well culture plates at a density of 2 × 10^4 cells/well in 100 μL volume and allowed to grow for 18 hours before treatment. After treatment, the plates were incubated for 24, 48 and 72 hours, respectively. Then, the supernatant (40 μL) was transferred to a new 96 well to determine LDH release and 6% triton X-100 (40 μL) was added to the original plate for determination of total LDH. An aliquot of 0.1 M potassium phosphate buffer (100 μL, pH 7.5) containing 4.6 mM pyruvic acid was mixed to the supernatant using repeated pipetting. Then, 0.1 M potassium phosphate buffer (100 μL, pH 7.5) containing 0.4 mg/mL reduced β-NADH was added to the wells. The kinetic changes were read for 1 min using ELISA microplate reader in absorbance at wavelength 340 nm. This procedure was repeated with 40 μL of the total cell lysate to determine total LDH U/well. A change of 0.001 absorbance units/min is equivalent to 1 U/L of LDH activity. The percentage of LDH release was determined by dividing the LDH released into the media by the total LDH following cell lysis in the same well.

HepG2 cells [4] = experiment: BrdU cell proliferation ELISA, HepG2; format: cell-based, human
Protocol: To further confirm the potential of goniothalamin-induced cell death HepG2 cells, a BrdU cell proliferation assay was performed. The cell proliferation percentage was measured by the incorporation of the thymidine analogue bromodeoxyuridine into DNA. In untreated HepG2, the absorbances (OD) at 450 nm wavelength were 1.445, 2.188 and 2.553 for 24, 48 and 72 hours, respectively. The cell proliferation rate was reduced in a concentration dependent manner after the addition of goniothalamin, compared to untreated control cells after all the times (Figure 3). […] Inhibition of DNA synthesis at the highest concentration (150 µM) is also time-dependent and is the most severe.
To confirm anti-proliferative effects in goniothalamin-treated cells, BrdU cell proliferation kit was used. HepG2 and Chang cells were seeded at 1.5 × 10^5 cells/mL in a final volume of 100 μL in a 96-well culture dish and incubated overnight to allow the cells to adhere to the dish. Each sample was assayed in triplicate. Besides, the control samples include a blank (no cells) and background (cells without BrdU) was also prepared. […] Then, BrdU label (20 μL, diluted by 1/2,000 in media) was added to each well and incubated for 24 h at 37 °C. The media was discarded and replaced by fix/denaturing solution (200 μL). The plate was incubated for 30 min at room temperature. The fix/denaturing solution was removed by inverting the plate. Then, BrdU antibody (100 μL, diluted by 1/100 in dilution buffer) was added to each well and left for 1 hour at room temperature. The cells were washed 3 times with wash buffer. After that, secondary antibody (100 μL, anti-mouse IgG HRP conjugated) was added to each well for 30 min. The washing step was done three times with wash buffer and once with distilled water. The distilled water was removed and substrate solution (100 μL) was added to each well. The plate was left for 15 min at room temperature in the dark condition. Finally, stop solution (100 μL) was added to the wells and absorbance measured at 450–540 nm.

HepG2 cells [5] = experiment: Trypan blue dye exclusion viable cell count, HepG2; format: cell-based, human
Protocol: (§2) As supported by MTT and LDH results, goniothalamin inhibited cell proliferation towards HepG2 in a time- and dose-dependent manner as shown in the BrdU incorporation ELISA method. The effects of goniothalamin on HepG2 and Chang cell growth were also analyzed by viable cell counts using trypan blue dye exclusion assay for 24, 48 and 72 hours after treatment with different doses of goniothalamin. […] The ratio between viable cell numbers in goniothalamin-treated cells and control cells was reported as the Viablity Index (VI, Figure 5A and Figure 5B).
(§3) A half mL aliquot of cell suspension (obtained from treated and non-treated HepG2 and Chang cells), was mixed with 0.5 mL of 0.4% trypan blue dye and left for 5 min at room temperature). The cells were counted using the hemacytometer and the percentage of dead cells was determined.

Chang cells [6] = experiment: Trypan blue dye exclusion viable cell count, Chang; format: cell-based
Protocol: as §2, §3

## O=C1C=CC[C@H](/C=C/c2ccccc2)O1 [Goniothalamin, 5-hydroxy-7-phenylhepta-2,6-dienoic acid lactone]
HepG2 cells [1]; HepG2, 72 hours
  IC50: 4.6 µM and 4.63 µM
HepG2 cells [1]; Homo sapiens, HepG2, 24 h
  IC50: 9.2 µM
HepG2 cells [1]; Homo sapiens, HepG2, 48 h
  IC50: 8.3 µM
HepG2 cells [1]; IC50 for normal cell line (Chang)/IC50 for cancerous cell line (HepG2), MTT, 72 hours
  selectivity index (SI): 7.6
HepG2 cells [1]; MTT, 72 hours, value fits HepG2 IC50s
  IC50-GTN / IC50-Doxo: 4.4
Chang cells [2]; 37.5 μM, 24 hours
  decrease of cell growth vs untreated control: 39%
Chang cells [2]; 37.5 μM, 48 hours
  decrease of cell growth vs untreated control: 44%
Chang cells [2]; 37.5 μM, 72 hours
  decrease of cell growth vs untreated control: 54%
Chang cells [2]; 75 μM, 24 hours
  decrease of cell growth vs untreated control: approximately 49%
Chang cells [2]; 75 μM, 48 hours
  decrease of cell growth vs untreated control: ~53%
Chang cells [2]; 75 μM, 72 hours
  decrease of cell growth vs untreated control: ~63%
Chang cells [2]; 72 hours
  IC50: 35 µM
Chang cells [2]; Homo sapiens, 24 h
  IC50: 79.1 µM
Chang cells [2]; Homo sapiens, 48 h
  IC50: 63.8 µM
Chang cells [2]; Homo sapiens, 72 h
  IC50: 35 µM
Chang cells [3]; Chang, 4.7 µM, 72 hours
  increase in LDH leakage: 19%
Chang cells [3]; Chang, 37.5 µM
  loss of viability (LDH leakage): ≤ 52%
Chang cells [3]; Chang, 2.3, 4.7 or 9.4 µM, on completion of incubation
  toxicity (LDH leakage): no significant toxicity
Chang cells [3]; Chang, 72 hours
  IC50: 32.5 µM
Chang cells [3]; Homo sapiens, 24 h, Chang, 24 hours
  IC50: 69.6 µM
Chang cells [3]; Homo sapiens, 48 h, Chang, 48 hours
  IC50: 55.1 µM
Chang cells [3]; Homo sapiens, 72 h, Chang, 72 hours
  IC50: 32.5 µM
HepG2 cells [4]; HepG2, IC50 concentration, 24 hours, untreated 1.445
  OD value at 450 nm (BrdU incorporation): 0.635
HepG2 cells [4]; HepG2, IC50 concentration, 72 hours, untreated 2.553
  OD value at 450 nm (BrdU incorporation): 0.372
HepG2 cells [4]; HepG2, lowest concentration (2.3 µL as printed), 72 hours
  cell proliferation as compared to control (BrdU): 19.8%
HepG2 cells [4]; HepG2, lowest concentration, 72 hours, untreated 2.553
  OD value at 450 nm (BrdU incorporation): 0.505
HepG2 cells [5]; HepG2, 2.3 µM
  viability (cell count, trypan blue): significantly inhibited
HepG2 cells [5]; HepG2, at IC50, 72 hours
  Viability Index: 52 ± 1.73%
HepG2 cells [5]; Homo sapiens, HepG2, 4.6 µM, 72 hours, read-out: inhibition of cell growth (trypan blue)
  inhibition at 4.6 µM: 52%
HepG2 cells [5]; Homo sapiens, HepG2, 8.3 µM, 48 hours, read-out: inhibition of cell growth (trypan blue)
  inhibition at 8.3 µM: 64%
HepG2 cells [5]; Homo sapiens, HepG2, 9.2 µM, 24 hours, read-out: inhibition of cell growth (trypan blue)
  inhibition at 9.2 µM: 79%
Chang cells [6]; at IC50, 72 hours
  Viability Index: 62 ± 4.36%
Chang cells [6]; doses comparable to 2.3 µM
  cytotoxicity (cell count, trypan blue): no obvious cytotoxicity
